From patent publication US20050143362A1 (priority 2003, published 2005)

Key:
[1] = test system: hypogonadism in the adult male; assay: Illustrative examples: danazol capsules given to hypogonadal adult men; type: in vivo; details: after one month
From the text: A person reports a lethargic and depressed mood. Blood tests show a hypogonadism in which total testosterone is borderline normal range but SHBG levels are higher than normal. Free testosterone levels are abnormally low and the patient is diagnosed as hypogonadal.
A person reports a general physical weakening and decreased libido. Blood tests show a high total testosterone level but SHBG levels are also in the very high range. Free testosterone levels are abnormally low and the patient is diagnosed as hypogonadal.

progesterone receptors = biological target: T1, progesterone receptors (Homo sapiens, UniProt P06401); details: Zurlo et al. 1990; cited from earlier work
T1 sequence (P06401 1-933): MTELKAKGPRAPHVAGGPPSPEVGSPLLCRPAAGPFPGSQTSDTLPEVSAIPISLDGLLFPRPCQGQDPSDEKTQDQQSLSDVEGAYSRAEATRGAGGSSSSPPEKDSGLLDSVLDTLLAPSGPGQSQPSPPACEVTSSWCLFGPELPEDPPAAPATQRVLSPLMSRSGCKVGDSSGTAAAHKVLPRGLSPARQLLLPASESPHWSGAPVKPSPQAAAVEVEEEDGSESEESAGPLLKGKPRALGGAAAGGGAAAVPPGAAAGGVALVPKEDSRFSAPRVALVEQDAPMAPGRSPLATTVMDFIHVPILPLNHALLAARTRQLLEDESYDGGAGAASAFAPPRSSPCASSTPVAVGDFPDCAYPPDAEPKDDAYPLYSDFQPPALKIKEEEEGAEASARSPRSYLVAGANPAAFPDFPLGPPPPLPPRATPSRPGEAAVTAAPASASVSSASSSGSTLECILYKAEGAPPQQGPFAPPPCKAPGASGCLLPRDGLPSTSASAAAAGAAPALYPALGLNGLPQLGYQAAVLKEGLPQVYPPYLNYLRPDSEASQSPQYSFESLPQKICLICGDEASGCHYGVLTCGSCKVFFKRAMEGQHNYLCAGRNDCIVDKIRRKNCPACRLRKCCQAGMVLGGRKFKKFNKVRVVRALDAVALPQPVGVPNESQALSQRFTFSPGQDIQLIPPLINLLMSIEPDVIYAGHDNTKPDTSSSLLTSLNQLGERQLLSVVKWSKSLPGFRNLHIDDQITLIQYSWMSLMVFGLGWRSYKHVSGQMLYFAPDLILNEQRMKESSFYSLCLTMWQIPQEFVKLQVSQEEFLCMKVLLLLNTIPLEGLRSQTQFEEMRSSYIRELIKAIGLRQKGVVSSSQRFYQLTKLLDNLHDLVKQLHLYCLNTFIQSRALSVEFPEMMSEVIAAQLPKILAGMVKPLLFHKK

[2] = biological target: T2, sex hormone binding globulin (SHBG) (Homo sapiens, UniProt P04278); details: Pugeat et al. 1981; cited from earlier work
T2 sequence (P04278 30-402): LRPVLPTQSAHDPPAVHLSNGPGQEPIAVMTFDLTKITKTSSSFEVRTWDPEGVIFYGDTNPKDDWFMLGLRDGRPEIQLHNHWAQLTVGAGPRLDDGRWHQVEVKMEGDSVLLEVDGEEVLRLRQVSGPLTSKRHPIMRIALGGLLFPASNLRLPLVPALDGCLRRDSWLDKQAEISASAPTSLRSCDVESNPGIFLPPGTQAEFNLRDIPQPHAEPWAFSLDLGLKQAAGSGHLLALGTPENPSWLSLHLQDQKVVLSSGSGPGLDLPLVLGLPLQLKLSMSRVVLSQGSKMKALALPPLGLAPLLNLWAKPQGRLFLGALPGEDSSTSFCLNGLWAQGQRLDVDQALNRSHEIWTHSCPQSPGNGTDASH

[3] = cited from earlier work
serum gonadotropins = details: Gelfand et al. 1976; cited from earlier work
[4] = Example 1: person, one 25 milligram capsule three times daily
[5] = Example 2: person, one 25 milligram capsule twice a day

C#C[C@]1(O)CC[C@H]2[C@@H]3CCC4=Cc5oncc5C[C@]4(C)[C@H]3CC[C@@]21C [danazol, 17α-pregn-4-en-20-yno[2,3-d]isoxazol-17-ol]
SHBG level (blood test) [1, 4]: remained stable
free testosterone (blood test) [1, 4]: increased
total testosterone level (blood test) [1, 4]: remained stable
vigor and mood reported by patient [1, 4]: greater vigor and an improved mood
SHBG level (blood test) [1, 5]: lower levels
free testosterone (blood test) [1, 5]: new higher level
libido reported by patient [1, 5]: increased libido
binding to progesterone receptors (progesterone receptors): competitive binding
displacement of testosterone from SHBG [2]: competitive displacer of testosterone
androgenic potential ([3]; Gelfand et al. 1976): markedly attenuated
myogenic (anabolic) activity ([3]; Gelfand et al. 1976): mildly myogenic
androgen-like activity ([3]; Potts et al. 1980): weak
anabolic response ([3]; whole males, low dosages, Dmowski et al. 1971): increased and stable, long term anabolic response
serum gonadotropins (serum gonadotropins): dose-dependent reduction
